Results as given in patent publication US11891464B2, “Alkane-soluble non-metallocene precatalysts” (Dow Global Technologies LLC, priority 2018, dated 2024).

Tests used:
[1] = Light-off Test Method (time to maximum temperature in polymerization of 1-octene); settings: for Light-off Performance (Time to Maximum (minutes)): 8 micromoles precatalyst, 0.16 g spray dried methylaluminoxane, 11 mL 1-octene
Experimental: Light-off Test Method: Under an atmosphere of nitrogen in a glovebox, charge a 40 mL glass vial with a PTFE-coated, magnetic stir bar and 0.16 g of spray dried methylaluminoxane powder of Preparation 1A. To the charged vial add 11 mL of 1-octene, and then insert the vial into an insulated sleeve mounted on a magnetic stir plate turning at approximately 300 rotations per minute (rpm). To the insulated vial add 8 micromoles (μmol) of precatalyst (e.g., compound (1) or HN5Zr dibenzyl). Cap the vial with a rubber septum. Insert a thermocouple probe through the rubber septum into the vial such that the tip of the thermocouple probe is below the liquid level. Record the temperature of the contents of the vial at 5 second intervals, continuing until after the maximum temperature is reached. Download the temperature and time data to a spreadsheet, and plot thermo-kinetic profiles for analysis.

[2] = Solubility Test Method (solubility in hexanes); format: physicochemical; settings: hexanes containing at least 60 wt % n-hexane; room temperature and ambient pressure
Experimental: Solubility Test Method: to a 20-mL vial is added, at room temperature and ambient pressure, a known mass of test precatalyst (e.g., compound (1)) and a known volume of hexanes containing at least 60 weight percent n-hexane. A PTFE-coated magnetic stir bar is added and the mixture is allowed to stir for 1 hour before the vial is removed from the stir plate, and the mixture is allowed to sit overnight. The next day the suspension is filtered through a 0.4 μm PTFE syringe filter into a tared vial, giving a known mass of supernatant, and the hexanes are removed under reduced pressure, leaving a measurable mass of the compound of formula (1) from which wt. % solubility is calculated.

| Compound | Light-off Performance (Time to Maximum (minutes)) [1] | time to maximum temperature, times better than HN5Zr dichloride (CE1) ([1]; relative to HN5Zr dichloride (CE1)) | Solubility in Hexanes (wt %) [2] |
| --- | --- | --- | --- |
| bis(2-(pentamethylphenylamido)ethyl)-amine zirconium(IV) bis-trimethylsilylmethyl [Compound (1A)] | 1.3 min | 4 times | – |
| Cc1c(C)c(C)c([N-]CCNCC[N-]c2c(C)c(C)c(C)c(C)c2C)c(C)c1C.[Cl-].[Cl-].[Zr+4] [HN5Zr dichloride (CE1)] | 5.2 min | – | – |
| Cc1c(C)c(C)c([N-]CCNCC[N-]c2c(C)c(C)c(C)c(C)c2C)c(C)c1C.[CH2-]c1ccccc1.[CH2-]c1ccccc1.[Zr+4] [HN5Zr dibenzyl (CE2)] | 78.6 min | – | 0.03 wt % |
